Patent US20020137929A1, “1 - (3-heterocyclylphenyl) isothiourea, -isourea, -guanidine and -amidine herbicidal agents” (Intellectual Property Department, BASF Aktiengesellschaft, priority 1998, published 2002)

What was measured:
SETVI (Foxtail, Green) [1] = assay: Postemergence herbicidal evaluation; format: in vivo, Setaria viridis
Summary of the method: (§1)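 Two-week seedlings sprayed postemergence at 40 psi; formulation: 1:1 acetone/water, 0.5% TWEEN 20; application ≈0.0156–0.500 kg/ha. Greenhouse grow-out, then 0–9 visual scoring at 4–5 weeks.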

ORYSAT (Rice, Tebonnet) = assay: Postemergence herbicidal evaluation; format: in vivo, Oryza sativa, (L.) Tebonnet
Summary of the method: as §1

ABUTH (Velvetleaf) [2] = assay: Postemergence herbicidal evaluation; format: in vivo, Abutilon theophrasti
Summary of the method: as §1

[3] = system: SAGPY (Arrowhead (Pygmaea)); assay: Preemergence weed control under flooded paddy conditions; format: in vivo, Sagittaria pygmaea; conditions: rated 3-4 weeks after treatment
Summary of the method: (§2)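 Seeds or propagules sown in top 0.5 cm of silt loam soil, flooded 1.5 to 3 cm above surface throughout. Compound in 50/50 v/v aqueous/acetone pipetted into flood water at about 0.0313 to 0.500 kg/ha. Visual 0-9 rating versus control after three to four weeks in greenhouse.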

[4] = system: SAGPY (Arrowhead (Pygmaea)); assay: Postemergence weed control under flooded paddy conditions; format: in vivo, Sagittaria pygmaea; conditions: postemergence weeds, rated 3 to 4 weeks after treatment
Summary of the method: (§3)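 Injury ratings (0–9 scale covering stand, vigor, malformation, size, chlorosis and overall appearance versus control) were made three to four weeks after treatment. Test material, about 0.0313 to 0.500 kg/ha a.i. in 50/50 v/v aqueous/acetone, was added to flood water 1.5 to 3 cm deep over 3 to 5 cm weeds and 1.5 to 2.5 leaf rice.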

CASOB (Sicklepod) = assay: Preemergence herbicidal evaluation; format: in vivo, Cassia obtusifolia; conditions: rated 4-5 weeks after treatment
Summary of the method: (§4)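 Test compound, dissolved in aqueous acetone, was sprayed over planted soil cups at an equivalent of about 0.0156 to 0.500 kg/ha; seeds had been mixed with potting soil. Greenhouse growth followed, with visual 0-9 scoring of injury at four to five weeks.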

ABUTH (Velvetleaf) [5] = assay: Preemergence herbicidal evaluation; format: in vivo, Abutilon theophrasti; conditions: rated 4-5 weeks after treatment
Summary of the method: as §4

SETVI (Foxtail, Green) [6] = assay: Preemergence herbicidal evaluation; format: in vivo, Setaria viridis; conditions: rated 4-5 weeks after treatment
Summary of the method: as §4

AMBEL (Ragweed, Common) = assay: Postemergence herbicidal evaluation; format: in vivo, Ambrosia artemisifolia
Summary of the method: as §1

CYPIR (Rice Flatsedge) = assay: Postemergence weed control under flooded paddy conditions; format: in vivo, Cyperus iria; conditions: postemergence weeds, rated 3 to 4 weeks after treatment
Summary of the method: as §3

[7] = system: GLXMAW (Soybean, Williams); assay: Postemergence herbicidal evaluation; format: in vivo, Glycine max, (L.) Merr. cv Williams
Summary of the method: as §1

ECHCG (Barnyardgrass) = assay: Postemergence herbicidal evaluation; format: in vivo, Echinochloa crus-galli
Summary of the method: as §1

MOOVA (Monochoria) = assay: Preemergence weed control under flooded paddy conditions; format: in vivo, Monochoria vaginalis; conditions: rated 3-4 weeks after treatment
Summary of the method: as §2

[8] = system: TRZAWR (Wheat, Winter, cv Riband); assay: Postemergence herbicidal evaluation; format: in vivo, Triticum aestivum
Summary of the method: as §1

C=CCN1C(=O)C(CC(=O)OC)SC1=Nc1cc(-n2c(=O)cc(C(F)(F)F)n(C)c2=O)c(F)cc1Cl (stereo not shown) [Compound 64, Methyl 3-allyl-2-{{2-chloro-5-[3,6-dihydro-3-methyl-2,6-dioxo-4-(trifluoromethyl)-1(2H)-pyrimidinyl]-4-fluorophenyl}imino}-4-oxo-5-thiazolidineacetate]
Postemergence herbicidal rating SETVI (SETVI (Foxtail, Green) [1]; Rate 0.0158 kg/ha): 6.0
Postemergence herbicidal rating SETVI (SETVI (Foxtail, Green) [1]; Rate 0.0315 kg/ha): 7.0
Postemergence herbicidal rating SETVI (SETVI (Foxtail, Green) [1]; Rate 0.0630 kg/ha): 9.0
Postemergence herbicidal rating ORYSAT (ORYSAT (Rice, Tebonnet); Rate 0.0158 kg/ha): 6.0
Postemergence herbicidal rating ORYSAT (ORYSAT (Rice, Tebonnet); Rate 0.0315 kg/ha): 6.0
Postemergence herbicidal rating ORYSAT (ORYSAT (Rice, Tebonnet); Rate 0.0630 kg/ha): 6.0
Postemergence herbicidal rating ABUTH (ABUTH (Velvetleaf) [2]; Rate 0.0158 kg/ha): 9.0
Postemergence herbicidal rating ABUTH (ABUTH (Velvetleaf) [2]; Rate 0.0315 kg/ha): 9.0
Postemergence herbicidal rating ABUTH (ABUTH (Velvetleaf) [2]; Rate 0.0630 kg/ha): 9.0
SAGPY herbicidal effect rating ([3]; 0.0313 kg/ha): 0.0
SAGPY herbicidal effect rating ([3]; 0.0625 kg/ha): 3.0
SAGPY herbicidal effect rating ([3]; 0.1250 kg/ha): 5.0
SAGPY herbicidal effect rating ([3]; 0.2500 kg/ha): 8.0
Herbicidal rating SAGPY ([4]; Rate 0.0313 kg/ha): 0.0
Herbicidal rating SAGPY ([4]; Rate 0.0625 kg/ha): 3.0
Herbicidal rating SAGPY ([4]; Rate 0.1250 kg/ha): 5.0
Herbicidal rating SAGPY ([4]; Rate 0.2500 kg/ha): 8.0
Preemergence herbicidal rating CASOB (CASOB (Sicklepod); rate 0.0156 kg/ha): 0.0
Preemergence herbicidal rating CASOB (CASOB (Sicklepod); rate 0.0313 kg/ha): 0.0
Preemergence herbicidal rating CASOB (CASOB (Sicklepod); rate 0.0625 kg/ha): 1.0
Preemergence herbicidal rating CASOB (CASOB (Sicklepod); rate 0.1250 kg/ha): 5.0
Preemergence herbicidal rating CASOB (CASOB (Sicklepod); rate 0.2500 kg/ha): 4.0
Preemergence herbicidal rating ABUTH (ABUTH (Velvetleaf) [5]; rate 0.0156 kg/ha): 1.0
Preemergence herbicidal rating ABUTH (ABUTH (Velvetleaf) [5]; rate 0.0313 kg/ha): 9.0
Preemergence herbicidal rating ABUTH (ABUTH (Velvetleaf) [5]; rate 0.0625 kg/ha): 9.0
Preemergence herbicidal rating ABUTH (ABUTH (Velvetleaf) [5]; rate 0.1250 kg/ha): 9.0
Preemergence herbicidal rating ABUTH (ABUTH (Velvetleaf) [5]; rate 0.2500 kg/ha): 9.0
Preemergence herbicidal rating SETVI (SETVI (Foxtail, Green) [6]; rate 0.0156 kg/ha): 0.0
Preemergence herbicidal rating SETVI (SETVI (Foxtail, Green) [6]; rate 0.0313 kg/ha): 0.0
Preemergence herbicidal rating SETVI (SETVI (Foxtail, Green) [6]; rate 0.0625 kg/ha): 9.0
Preemergence herbicidal rating SETVI (SETVI (Foxtail, Green) [6]; rate 0.1250 kg/ha): 7.0
Preemergence herbicidal rating SETVI (SETVI (Foxtail, Green) [6]; rate 0.2500 kg/ha): 9.0
Postemergence herbicidal rating AMBEL (AMBEL (Ragweed, Common); Rate 0.0158 kg/ha): 9.0
Postemergence herbicidal rating AMBEL (AMBEL (Ragweed, Common); Rate 0.0315 kg/ha): 9.0
Postemergence herbicidal rating AMBEL (AMBEL (Ragweed, Common); Rate 0.0630 kg/ha): 9.0
Herbicidal rating CYPIR (CYPIR (Rice Flatsedge); Rate 0.0313 kg/ha): 0.0
Herbicidal rating CYPIR (CYPIR (Rice Flatsedge); Rate 0.0625 kg/ha): 2.0
Herbicidal rating CYPIR (CYPIR (Rice Flatsedge); Rate 0.1250 kg/ha): 2.0
Herbicidal rating CYPIR (CYPIR (Rice Flatsedge); Rate 0.2500 kg/ha): 7.0
Postemergence herbicidal rating GLXMAW ([7]; Rate 0.0158 kg/ha): 7.0
Postemergence herbicidal rating GLXMAW ([7]; Rate 0.0315 kg/ha): 7.5
Postemergence herbicidal rating GLXMAW ([7]; Rate 0.0630 kg/ha): 7.5
Postemergence herbicidal rating ECHCG (ECHCG (Barnyardgrass); Rate 0.0158 kg/ha): 3.0
Postemergence herbicidal rating ECHCG (ECHCG (Barnyardgrass); Rate 0.0315 kg/ha): 5.0
Postemergence herbicidal rating ECHCG (ECHCG (Barnyardgrass); Rate 0.0630 kg/ha): 7.0
MOOVA herbicidal effect rating (MOOVA (Monochoria); 0.0313 kg/ha): 7.0
MOOVA herbicidal effect rating (MOOVA (Monochoria); 0.0625 kg/ha): 9.0
MOOVA herbicidal effect rating (MOOVA (Monochoria); 0.1250 kg/ha): 9.0
MOOVA herbicidal effect rating (MOOVA (Monochoria); 0.2500 kg/ha): 9.0
Postemergence herbicidal rating TRZAWR ([8]; Rate 0.0158 kg/ha): 6.0
Postemergence herbicidal rating TRZAWR ([8]; Rate 0.0315 kg/ha): 6.0
Postemergence herbicidal rating TRZAWR ([8]; Rate 0.0630 kg/ha): 7.0
